Measurements taken from patent EP1191024A1, “Thiadiazines and their use as inhibitors of metalloproteinases” (Tschesche, Harald, priority 2000, dated 2002).
pIC50: −log10 of the molar value. Like-named read-outs stand apart in the source and are kept apart here.

Assays:
Experiment in all cases: MMP microfluorometric profiling assay (fluorogenic Mca-peptide substrate)
Assay type in all cases: biochemical
MMP-1 = biological target: T1, MMP-1 (Homo sapiens, UniProt P03956)
T1 construct: MMP-1 from human rheumatoid synovial fibroblasts was purchased; purchased Calbiochem-Novabiochem Corporation, LaJolla; host or cells: human rheumatoid synovial fibroblasts
T1 sequence (P03956 100-469): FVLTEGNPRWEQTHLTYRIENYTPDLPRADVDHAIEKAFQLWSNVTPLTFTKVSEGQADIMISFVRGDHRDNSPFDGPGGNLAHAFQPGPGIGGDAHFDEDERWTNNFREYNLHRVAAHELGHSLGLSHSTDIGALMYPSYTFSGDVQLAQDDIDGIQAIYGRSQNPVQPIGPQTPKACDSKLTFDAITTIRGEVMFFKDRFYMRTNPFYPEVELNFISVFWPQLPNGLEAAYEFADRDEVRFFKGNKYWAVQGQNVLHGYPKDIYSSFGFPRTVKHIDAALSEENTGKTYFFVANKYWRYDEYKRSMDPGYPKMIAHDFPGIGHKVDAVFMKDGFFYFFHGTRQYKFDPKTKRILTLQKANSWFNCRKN
Experimental: (§1) The tested MMP enzymes were prepared more specifically in the laboratories of the applicants, with the exception of MMP-1. MMP-1 from human rheumatoid synovial fibroblasts was purchased from Calbiochem-Novabiochem Corporation, LaJolla. Preparation of the recombinant catalytic domain of human Gelatinase A (cdMMP-2): The catalytic domain of Pro-Gelatinase A was prepared using an E. coli expression system according to the method described by Kröger et al^[19]. The proenzyme was activated with 0.5 mM APMA at 37°C prior to use in the assay. Preparation of the recombinant catalytic domain of human neutrophile Collagenase (cdMMP-8^Met80): The enzyme was expressed in E. coli as an active variant by the method of Kleine et al^[20]. Preparation of PMNL-Gelatinase (MMP-9): Latent PMNL-pro-Gelatinase was prepared from human plasma buffy coat as described by Tschesche et al^[21]. PMNL-pro-Gelatinase was activated prior to use by incubation with Trypsin at 37°C for 10 min. Inactivation of Trypsin was accomplished with TKI. Preparation of the recombinant catalytic domain of human Macrophage Elastase (cdMMP-12): The catalytic domain of MMP-12 was expressed in E. coli. The overexpressed protein was isolated as inclusion bodies and the renatured protein was purified by affinity chromatography with a hydroxamate inhibitor coupled column as described^[22]. Preparation of the recombinant catalytic domain of human Collagenase-3 (cdMMP-13): Human pro-cdMMP-13 was prepared using an E. coli expression system according to the method described^[23]. The isolated pro-cdMMP-13 was activated prior to use by incubation with 5 mM HgCl2 for 2 h at 37°C. Preparation of the recombinant catalytic domain of Membrane-Type-1 MMP (cdMMP-14): The catalytic domain of MMP-14 was expressed in E. coli and was activated by autocatalysis^[24]. Preparation of the recombinant human ectodomain of Membrane-Type-1 MMP (ΔTM-MMP-14): The ectodomain of MMP-14 was expressed in Pichia Pastoris by the method of Roderfeld et al. and activated by yeast proteases (Furin-like-proteases) during maturation^[25].
(§2) The enzymatic activity was measured using a modified version of a resonance energy transfer fluorogenic assay as described^[26]. Progress curves were monitored by following the increase in fluorescence at 393 nm (λex = 328 nm), induced by the cleavage of the (7-methoxycoumarin-4-yl)acetyl-Pro-Leu-Gly-Leu-(3-[2,4-dinitro-phenyl]-L-2,3-diamino-propionyl)-Ala-Arg-NH2 (Mca-Pro-Leu-Gly-Leu-Dpa-Ala-Arg-NH2) fluorogenic substrate by MMPs. The fluorescent MCA-group is quenched by resonance energy transfer to the 2,4-dinitrophenyl group. Matrix metalloproteinases cleave this substrate at the Gly-Leu bond. Cleavage results in the loss of energy transfer and a large increase in fluorescence of the MCA group. This substrate is commercially available from Bachem, Switzerland.
(§3) Enzyme inhibition assays were carried out in MRB which consisted of 50 mM HEPES/NaOH, pH 7.0, 10 mM CaCl2 and 0,02% (w/v) PEG 8000 at 25°C. MMP microfluorometric profiling assay was done in white U-bottomed 96-well plates (Microfluor 1 White, Dynex, USA) with a final substrate concentration of 6 µM MCA-peptide, approximately 0.3 to 5 nM MMP with variable inhibitor concentrations and 2% DMSO vehicle. From a 1.5 mM stock (100% DMSO) the inhibitors were serially diluted with MRB to 15, 10, 5, 3, 1, 0.6, 0.3, 0.1, 0.05, 0.01 and 0.005 µM final assay concentration. Column 1, rows A through H, contained only DMSO for the "enzyme-only" wells in the assay. After preincubation for 30 min at 25°C the reaction was started by addition of substrate and the plate was read on a SpectraFluor Plus (Tecan, Germany) plate reader with excitation at 330 nm and emission at 405 nm with the gain set to 150. Each measurement was done in triplicate to ensure statistically significant results. […]

MMP-9 = biological target: T2, MMP-9 (Homo sapiens, UniProt P14780)
T2 construct: from tissue; host or cells: human plasma buffy coat (PMNL)
T2 sequence (P14780 107-707 limits assumed): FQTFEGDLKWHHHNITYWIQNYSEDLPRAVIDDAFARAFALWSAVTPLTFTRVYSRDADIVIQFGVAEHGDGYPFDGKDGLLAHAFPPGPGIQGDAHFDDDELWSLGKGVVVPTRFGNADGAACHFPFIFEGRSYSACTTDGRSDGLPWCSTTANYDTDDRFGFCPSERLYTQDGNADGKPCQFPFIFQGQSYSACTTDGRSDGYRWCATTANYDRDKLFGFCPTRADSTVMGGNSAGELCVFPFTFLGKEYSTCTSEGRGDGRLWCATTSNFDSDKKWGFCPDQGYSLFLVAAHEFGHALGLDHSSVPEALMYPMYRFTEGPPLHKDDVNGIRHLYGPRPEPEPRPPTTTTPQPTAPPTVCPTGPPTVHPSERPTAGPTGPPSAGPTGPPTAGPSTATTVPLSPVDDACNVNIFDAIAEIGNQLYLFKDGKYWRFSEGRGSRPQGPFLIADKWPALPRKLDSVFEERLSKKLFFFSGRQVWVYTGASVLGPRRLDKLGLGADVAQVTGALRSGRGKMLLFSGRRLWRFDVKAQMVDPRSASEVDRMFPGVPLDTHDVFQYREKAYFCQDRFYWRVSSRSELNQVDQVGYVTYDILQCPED
Experimental: as §1, §2, §3

cdMMP-12 = biological target: T3, cdMMP-12 (Homo sapiens, UniProt P39900)
T3 construct: The catalytic domain of MMP-12 was expressed in E. coli; made in house; host or cells: E. coli
T3 sequence (P39900 106-263 limits assumed): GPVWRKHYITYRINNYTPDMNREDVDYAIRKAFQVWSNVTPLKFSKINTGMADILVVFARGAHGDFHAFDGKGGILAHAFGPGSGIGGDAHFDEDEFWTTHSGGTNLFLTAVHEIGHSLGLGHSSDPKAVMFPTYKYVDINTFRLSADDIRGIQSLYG
Experimental: as §1, §2, §3

cdMMP-13 = cdMMP-13 (Homo sapiens, UniProt P45452)
Experimental: as §1, §2, §3

cdMMP-14 = biological target: T4, cdMMP-14 (Homo sapiens, UniProt P50281)
T4 construct: made in house; host or cells: E. coli
Experimental: as §1, §2, §3

| Compound | pIC50 (MMP-1) | pIC50 (MMP-9) | pIC50 (cdMMP-12) | pIC50 (cdMMP-13; read-out: cdMMP-13 IC50) | pIC50 (cdMMP-14) | percent inhibition (MMP-1; MMP-1, @ 15 (µM)) | percent inhibition (MMP-9; MMP-9, @ 15 (µM)) | percent inhibition (cdMMP-13; cdMMP-13, @ 15 (µM)) | percent inhibition (cdMMP-14; cdMMP-14, @ 15 (µM)) | pIC50 (cdMMP-13) |
| --- | --- | --- | --- | --- | --- | --- | --- | --- | --- | --- |
| CC(C)(C)c1ccc(S(=O)(=O)NCC(=O)NC2=NN=C(c3ccc(Cl)cc3Cl)CS2)cc1 [Example 18, 2-{[(4-tert-Butylphenyl)sulfonyl]amino}-N-[5-(2,4-dichlorophenyl)-6H-1,3,4-thiadiazin-2-yl]acetamide] | 6.37 | 5.59 | 6.18 | 5.85 | 6.11 | – | – | – | – | – |
| O=C(CC1NC(=O)NC1=O)NC1=NN=C(c2ccc(C3CCCCC3)cc2)CS1 (stereo not shown) [Example 25, N-[5-(4-Cyclohexylphenyl)-6H-1,3,4-thiadiazin-2-yl]-2-(2,5-dioxo-4-imidazolidinyl)acetamide] | – | – | 5.85 | – | – | 67%^a)@ 15 | 49%^a)@ 15 | 67%^a)@ 15 | 66%^a)@ 15 | – |
| C[C@H](NS(=O)(=O)N1CCOCC1)C(=O)NC1=NN=C(c2ccc(Cl)cc2)CS1 [Example 28, (2S)-N-[5-(4-Chlorophenyl)-6H-1,3,4-thiadiazin-2yl-]-2-[(4-morpholinylsulfonyl)amino]propanamide] | 6.27 | 5.92 | 6.48 | – | 6.33 | – | – | – | – | 6.13 |

Further compounds by rising pIC50 (cdMMP-12), results first:

| pIC50 (MMP-1) | pIC50 (MMP-9) | pIC50 (cdMMP-12) | pIC50 (cdMMP-13; read-out: cdMMP-13 IC50) | pIC50 (cdMMP-14) | percent inhibition (MMP-1; MMP-1, @ 15 (µM)) | percent inhibition (MMP-9; MMP-9, @ 15 (µM)) | percent inhibition (cdMMP-13; cdMMP-13, @ 15 (µM)) | percent inhibition (cdMMP-14; cdMMP-14, @ 15 (µM)) | Compound | pIC50 (cdMMP-13) |
| --- | --- | --- | --- | --- | --- | --- | --- | --- | --- | --- |
| 6.25 | 6.11 | 6.18 | 6.02 | 6.32 | – | – | – | – | O=C1C[C@@H](C(=O)NC2=NN=C(c3ccc(Cl)cc3)CS2)NC(=O)N1 [Example 30, (4S)-N-[5-(4-Chlorophenyl)-6H-1,3,4-thiadiazin-2-yl]-2,6-dioxohexahydro-4-pyrimidinecarboxamide] | – |
| 6.29 | 6.59 | 6.39 | 6.44 | 6.35 | – | – | – | – | C[C@H](NS(=O)(=O)c1cccnc1)C(=O)NC1=NN=C(c2ccc(Cl)cc2)CS1 [Example 29, (2S)-N-[5-(4-Chlorophenyl)-6H-1,3,4-thiadiazin-2-yl]-2-[(3-pyridylsulfonyl)-amino]propanamide] | – |
